Data from ChEMBL document CHEMBL5543140 (J Med Chem, 2024).
Activity calls are given as the source filed them. No cut-off for these calls is given here.

Legend:
[1] = target: T1, 5-hydroxytryptamine receptor 2A (Homo sapiens, UniProt P28223); assay: Displacement of [3H]LSD from human 5-HT2A receptor expressed in HEK293 cell membrane incubated for 90 mins by microbeta liquid scintillation counting method; format: cell membranes
[2] = target: T1, 5-hydroxytryptamine receptor 2A; assay: Agonist activity at human 5-HT2A receptor expressed in HEK293 cells assessed as IP2 production measured after 30 mins incubation by HTRF assay; format: functional, cell-based
[3] = target: T1, 5-hydroxytryptamine receptor 2A; assay: Agonist activity at human 5-HT2A receptor expressed in HEK293 cells assessed as maximal IP2 production measured after 30 mins incubation by HTRF assay relative to control; format: functional, cell-based; settings: filed as agonist
Mus musculus [4] = assay: Psychedelic effect in C57BL/6J mouse assessed as number of head-twitch responses by visual observation at 3 to 30 mg/kg, po; format: functional, organism-based; settings: dose 3-30 mg/kg
[5] = Metabolic stability in Sprague-Dawley rat liver microsomes assessed as deuteration effect measured upto 120 mins by LC-MS/MS analysis; format: ADME, Microsome; settings: 2 h
[6] = Metabolic stability of the compound assessed as recombinant human MAO-mediated oxidative metabolism by measuring compound remaining measured upto 120 mins by LC-MS/MS analysis; format: ADME; settings: 2 h
[7] = target: T2, 5-hydroxytryptamine receptor 2B (Homo sapiens, UniProt P41595); assay: Displacement of [3H]LSD from human 5-HT2B receptor expressed in HEK293 cell membrane incubated for 90 mins by microbeta liquid scintillation counting method; format: cell membranes
T2 sequence (P41595 whole entry): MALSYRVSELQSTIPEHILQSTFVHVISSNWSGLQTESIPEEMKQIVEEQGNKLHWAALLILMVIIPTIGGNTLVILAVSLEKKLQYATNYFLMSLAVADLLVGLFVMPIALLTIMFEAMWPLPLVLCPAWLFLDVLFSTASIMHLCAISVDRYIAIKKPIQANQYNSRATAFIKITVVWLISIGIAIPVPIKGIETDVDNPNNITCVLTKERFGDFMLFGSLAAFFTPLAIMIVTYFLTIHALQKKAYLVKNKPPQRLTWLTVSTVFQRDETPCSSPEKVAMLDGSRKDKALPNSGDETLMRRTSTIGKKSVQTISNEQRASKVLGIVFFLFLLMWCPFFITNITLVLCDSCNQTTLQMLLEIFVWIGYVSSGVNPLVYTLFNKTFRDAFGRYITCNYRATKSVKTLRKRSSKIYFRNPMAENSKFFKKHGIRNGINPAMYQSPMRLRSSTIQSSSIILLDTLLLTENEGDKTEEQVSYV

[8] = target: T3, 5-hydroxytryptamine receptor 2C (Homo sapiens, UniProt P28335); assay: Displacement of [3H]LSD from human 5-HT2C receptor expressed in HEK293 cell membrane incubated for 90 mins by microbeta liquid scintillation counting method; format: cell membranes
T3 sequence (P28335 whole entry): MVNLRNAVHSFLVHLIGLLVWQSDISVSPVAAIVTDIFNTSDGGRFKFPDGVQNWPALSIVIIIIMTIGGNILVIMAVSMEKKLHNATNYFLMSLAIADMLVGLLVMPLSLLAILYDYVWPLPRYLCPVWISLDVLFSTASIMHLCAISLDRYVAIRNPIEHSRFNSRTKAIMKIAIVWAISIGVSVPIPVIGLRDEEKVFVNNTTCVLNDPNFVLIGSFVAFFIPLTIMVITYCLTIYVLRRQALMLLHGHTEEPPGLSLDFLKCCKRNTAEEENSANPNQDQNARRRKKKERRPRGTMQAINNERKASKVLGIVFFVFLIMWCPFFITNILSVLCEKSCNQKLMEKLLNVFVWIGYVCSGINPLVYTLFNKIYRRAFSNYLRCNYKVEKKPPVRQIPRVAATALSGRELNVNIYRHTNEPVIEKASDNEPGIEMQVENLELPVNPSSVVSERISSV

Mus musculus [9] = assay: Psychedelic effect in C57BL/6J mouse assessed as number of head-twitch responses by visual observation at 3 mg/kg, po measured for 3 mins at 5 to 25 min; format: functional; settings: 0.05 h
Mus musculus [10] = assay: Psychedelic effect in C57BL/6J mouse assessed as number of head-twitch responses by visual observation at 3 mg/kg, po measured for 3 mins at 160 to 170 min; format: functional; settings: 0.05 h
[11] = Lipophilicity, logP of the compound; format: physicochemical; settings: octanol/water
[12] = Chemical stability of the compound in buffer solution at pH 1 to 6.8 measured for 5 days; format: physicochemical; settings: pH 1, 120 h, time 5 day
[13] = Chemical stability of the compound in water measured for 5 days; format: physicochemical; settings: buffer, 120 h; time 5 day
[14] = target: T2, 5-hydroxytryptamine receptor 2B; assay: Agonist activity at human 5-HT2B receptor expressed in CHO cells assessed as maximal IP2 production measured after 30 mins incubation by HTRF assay relative to control; format: functional, cell-based
[15] = target: 5-hydroxytryptamine receptor 2C (Homo sapiens) (UniProt P28335); assay: Agonist activity at human 5-HT2C receptor expressed in HEK293 cells assessed as maximal IP2 production measured after 30 mins incubation by HTRF assay relative to control; format: functional, cell-based; settings: filed as agonist
[16] = target: T4, 5-hydroxytryptamine receptor 1A (Homo sapiens) (UniProt P08908); assay: Agonist activity at human 5-HT1A receptor expressed in HEK293T cells co-transfected with 22F-Glosensor assessed as inhibition of cAMP production measured after 30 mins incubation by Microbeta2Micro-plate counter analysis; format: functional, cell-based; settings: filed as agonist
T4 sequence (whole entry): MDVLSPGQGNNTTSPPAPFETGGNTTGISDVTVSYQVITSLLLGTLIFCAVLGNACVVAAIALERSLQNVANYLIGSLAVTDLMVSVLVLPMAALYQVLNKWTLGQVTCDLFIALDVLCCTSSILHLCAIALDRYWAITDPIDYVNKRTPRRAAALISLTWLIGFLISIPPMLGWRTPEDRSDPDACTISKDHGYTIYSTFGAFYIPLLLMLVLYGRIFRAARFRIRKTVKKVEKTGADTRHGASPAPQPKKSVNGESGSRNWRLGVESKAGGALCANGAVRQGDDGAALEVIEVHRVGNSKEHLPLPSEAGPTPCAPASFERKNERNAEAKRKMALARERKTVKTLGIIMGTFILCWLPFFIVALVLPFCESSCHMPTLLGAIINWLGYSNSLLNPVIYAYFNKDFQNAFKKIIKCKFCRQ

[17] = target: Adrenergic receptor alpha-2 (Rattus norvegicus) (UniProt P22086+P19328+P22909); assay: Displacement of [3H]RX 821002 from rat cerebral cortex alpha2 adrenergic receptor assessed as remaining activity at 10 uM after 60 mins by scintillation counting method relative to control
[18] = target: Muscarinic acetylcholine receptor M1 (Homo sapiens) (UniProt P11229); assay: Displacement of [3H]-Pirenzepine from human muscarinic M1 expressed in CHO-K1 cells membrane at 10 uM incubated for 60 mins by microbeta liquid scintillation counting analysis; format: cell membranes; settings: Cell membrane
Muscarinic acetylcholine receptor M1 (Homo sapiens), sequence (P11229 whole entry): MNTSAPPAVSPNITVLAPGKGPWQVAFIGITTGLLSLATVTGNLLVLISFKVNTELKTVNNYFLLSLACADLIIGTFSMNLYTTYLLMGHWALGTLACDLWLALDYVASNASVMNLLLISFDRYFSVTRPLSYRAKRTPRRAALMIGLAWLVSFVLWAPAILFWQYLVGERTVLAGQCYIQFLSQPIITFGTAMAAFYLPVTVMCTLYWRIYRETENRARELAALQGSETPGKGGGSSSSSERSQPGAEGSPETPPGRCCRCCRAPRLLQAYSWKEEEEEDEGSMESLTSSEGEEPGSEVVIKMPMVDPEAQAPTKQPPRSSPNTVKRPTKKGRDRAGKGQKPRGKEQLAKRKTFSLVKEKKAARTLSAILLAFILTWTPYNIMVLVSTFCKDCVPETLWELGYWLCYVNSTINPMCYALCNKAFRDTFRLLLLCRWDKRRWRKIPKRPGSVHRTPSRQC

[19] = target: Muscarinic acetylcholine receptor M4 (Homo sapiens) (UniProt P08173); assay: Displacement of [3H]4-DAMP from human recombinant muscarinic M4 receptor expressed in HEK293 cells at 10 uM incubated for 60 mins by radiometric based scintillation counter assay relative to control; format: cell-based
Muscarinic acetylcholine receptor M4 (Homo sapiens), sequence (P08173 whole entry): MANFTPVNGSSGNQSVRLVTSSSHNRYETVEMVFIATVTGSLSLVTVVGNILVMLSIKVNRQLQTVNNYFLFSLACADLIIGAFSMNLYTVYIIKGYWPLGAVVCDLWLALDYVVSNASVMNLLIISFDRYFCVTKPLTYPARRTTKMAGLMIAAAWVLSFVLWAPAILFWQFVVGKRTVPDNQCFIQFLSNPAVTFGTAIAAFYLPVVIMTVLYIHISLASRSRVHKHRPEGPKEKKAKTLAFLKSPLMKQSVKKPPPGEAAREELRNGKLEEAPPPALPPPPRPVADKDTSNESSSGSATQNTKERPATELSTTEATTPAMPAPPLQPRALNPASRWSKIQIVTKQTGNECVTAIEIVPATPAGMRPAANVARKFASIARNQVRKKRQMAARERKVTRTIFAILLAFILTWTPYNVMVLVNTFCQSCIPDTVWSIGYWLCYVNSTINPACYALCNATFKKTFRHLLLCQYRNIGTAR

[20] = target: Muscarinic acetylcholine receptor M5 (Homo sapiens) (UniProt P08912); assay: Displacement of [3H]4-DAMP from human recombinant muscarinic M5 receptor expressed in HEK293 cells at 10 uM incubated for 60 mins by radiometric based scintillation counter assay relative to control; format: cell-based
Muscarinic acetylcholine receptor M5 (Homo sapiens), sequence (P08912 whole entry): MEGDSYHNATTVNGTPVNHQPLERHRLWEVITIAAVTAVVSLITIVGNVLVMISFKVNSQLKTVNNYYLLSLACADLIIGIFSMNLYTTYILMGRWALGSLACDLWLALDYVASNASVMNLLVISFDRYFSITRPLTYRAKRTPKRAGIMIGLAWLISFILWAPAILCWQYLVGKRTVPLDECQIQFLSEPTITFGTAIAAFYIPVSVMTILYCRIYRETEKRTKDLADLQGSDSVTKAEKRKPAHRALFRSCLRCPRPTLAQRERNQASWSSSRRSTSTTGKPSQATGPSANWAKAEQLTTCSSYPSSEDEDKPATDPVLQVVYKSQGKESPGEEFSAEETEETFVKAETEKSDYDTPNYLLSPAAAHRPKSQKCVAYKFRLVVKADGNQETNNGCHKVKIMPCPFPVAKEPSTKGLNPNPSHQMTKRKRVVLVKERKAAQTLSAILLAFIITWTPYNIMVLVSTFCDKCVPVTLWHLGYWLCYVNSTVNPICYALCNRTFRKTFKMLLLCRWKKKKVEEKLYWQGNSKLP

[21] = target: Voltage-dependent L-type calcium channel subunit alpha-1C (Homo sapiens, UniProt Q13936); assay: Binding affinity to human Calcium channel L-type (verapamil site) at 10 uM measured after 180 mins by [3H]D888-Radiometric assay relative to control
Voltage-dependent L-type calcium channel subunit alpha-1C, sequence (Q13936 whole entry): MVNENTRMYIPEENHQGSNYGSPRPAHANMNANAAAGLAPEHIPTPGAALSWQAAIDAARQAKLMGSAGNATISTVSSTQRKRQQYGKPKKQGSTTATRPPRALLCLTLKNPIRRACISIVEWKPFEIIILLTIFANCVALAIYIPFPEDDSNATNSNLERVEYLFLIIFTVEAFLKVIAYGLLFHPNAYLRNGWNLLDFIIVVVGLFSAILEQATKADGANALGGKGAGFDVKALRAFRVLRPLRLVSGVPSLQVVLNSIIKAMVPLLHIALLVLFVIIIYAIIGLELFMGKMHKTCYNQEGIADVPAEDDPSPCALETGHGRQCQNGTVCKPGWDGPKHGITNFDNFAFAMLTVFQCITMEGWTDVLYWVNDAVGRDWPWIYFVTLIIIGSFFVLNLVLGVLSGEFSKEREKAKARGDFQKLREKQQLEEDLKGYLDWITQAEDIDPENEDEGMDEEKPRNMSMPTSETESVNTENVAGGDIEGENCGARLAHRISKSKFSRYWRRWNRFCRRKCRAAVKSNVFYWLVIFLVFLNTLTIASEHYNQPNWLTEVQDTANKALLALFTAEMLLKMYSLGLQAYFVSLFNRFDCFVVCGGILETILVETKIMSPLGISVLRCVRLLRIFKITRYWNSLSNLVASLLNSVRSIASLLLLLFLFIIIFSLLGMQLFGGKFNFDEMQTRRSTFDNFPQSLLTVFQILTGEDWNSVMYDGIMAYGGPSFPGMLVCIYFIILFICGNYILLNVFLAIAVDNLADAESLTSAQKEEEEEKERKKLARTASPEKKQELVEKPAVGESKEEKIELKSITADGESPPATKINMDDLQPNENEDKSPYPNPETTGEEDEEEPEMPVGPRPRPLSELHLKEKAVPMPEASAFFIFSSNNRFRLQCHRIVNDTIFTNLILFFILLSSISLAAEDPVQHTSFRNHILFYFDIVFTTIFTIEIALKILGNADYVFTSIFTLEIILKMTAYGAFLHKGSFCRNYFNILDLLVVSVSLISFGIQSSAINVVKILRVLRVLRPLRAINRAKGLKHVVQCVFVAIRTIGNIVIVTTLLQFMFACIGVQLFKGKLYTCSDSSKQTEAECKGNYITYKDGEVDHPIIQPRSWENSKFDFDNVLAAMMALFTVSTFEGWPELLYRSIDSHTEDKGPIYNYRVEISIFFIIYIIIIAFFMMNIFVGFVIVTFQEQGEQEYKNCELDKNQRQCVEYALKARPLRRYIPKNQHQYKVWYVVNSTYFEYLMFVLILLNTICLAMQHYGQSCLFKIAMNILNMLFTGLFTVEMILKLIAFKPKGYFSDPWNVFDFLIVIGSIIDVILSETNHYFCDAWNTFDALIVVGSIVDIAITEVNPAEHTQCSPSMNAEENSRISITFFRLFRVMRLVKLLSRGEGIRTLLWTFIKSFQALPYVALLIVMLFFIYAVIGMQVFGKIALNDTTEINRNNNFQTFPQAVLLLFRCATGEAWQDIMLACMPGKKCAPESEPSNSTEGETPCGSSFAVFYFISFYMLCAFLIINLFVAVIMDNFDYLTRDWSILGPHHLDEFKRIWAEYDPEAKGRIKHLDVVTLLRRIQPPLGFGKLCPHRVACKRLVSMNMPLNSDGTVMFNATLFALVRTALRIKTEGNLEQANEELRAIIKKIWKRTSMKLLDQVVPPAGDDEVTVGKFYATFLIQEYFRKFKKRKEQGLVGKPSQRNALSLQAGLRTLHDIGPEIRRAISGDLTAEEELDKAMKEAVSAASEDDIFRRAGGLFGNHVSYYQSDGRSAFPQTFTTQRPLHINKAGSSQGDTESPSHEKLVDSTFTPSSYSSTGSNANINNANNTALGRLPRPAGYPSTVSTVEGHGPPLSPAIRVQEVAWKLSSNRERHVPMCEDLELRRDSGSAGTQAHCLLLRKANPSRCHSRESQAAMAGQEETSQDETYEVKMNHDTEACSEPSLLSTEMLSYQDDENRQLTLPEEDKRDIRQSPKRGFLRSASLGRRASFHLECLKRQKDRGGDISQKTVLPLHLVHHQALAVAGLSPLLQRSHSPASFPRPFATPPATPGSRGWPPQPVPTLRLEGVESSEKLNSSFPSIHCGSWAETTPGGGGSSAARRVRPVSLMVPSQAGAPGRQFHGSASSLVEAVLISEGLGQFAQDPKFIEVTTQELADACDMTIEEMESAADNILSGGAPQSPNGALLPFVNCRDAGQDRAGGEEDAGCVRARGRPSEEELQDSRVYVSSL

Mus musculus [22] = assay: Psychedelic effect in C57BL/6J mouse assessed as induction of 5-HT2A receptor dependent maximal head-twitch responses by visual observation at 1 mg/kg, sc at 15 to 220 mins; format: functional, organism-based; settings: time lower 15.0 min, time upper […]
Mus musculus [23] = assay: Locomotor activity in C57BL/6J mouse assessed as distance traveled at 1 mg/kg, ip measured for 15 to 25 mins; format: functional; settings: time 15-25 min

T1 sequence (P28223 whole entry): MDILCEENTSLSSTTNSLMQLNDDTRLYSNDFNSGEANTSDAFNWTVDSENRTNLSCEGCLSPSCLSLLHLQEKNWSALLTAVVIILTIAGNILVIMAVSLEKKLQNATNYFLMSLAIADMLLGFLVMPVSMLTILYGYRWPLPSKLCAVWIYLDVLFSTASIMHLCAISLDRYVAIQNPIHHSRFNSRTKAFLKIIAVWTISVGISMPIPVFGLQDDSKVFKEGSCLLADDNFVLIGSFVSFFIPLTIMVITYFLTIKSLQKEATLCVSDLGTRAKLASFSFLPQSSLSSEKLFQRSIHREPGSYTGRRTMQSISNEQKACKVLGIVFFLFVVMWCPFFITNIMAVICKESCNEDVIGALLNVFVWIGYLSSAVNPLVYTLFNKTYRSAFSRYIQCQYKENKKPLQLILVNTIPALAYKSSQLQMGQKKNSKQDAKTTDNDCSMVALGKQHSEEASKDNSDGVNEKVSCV

**Q.** With `COc1cc(SC(F)(F)F)c(OC)cc1CCNCC1CC1` as the molecule, how does the Ki ([1]; read-out: Ki) read?
**A.** 8.9 nM

**Q.** And the EC50 ([2]; read-out: EC50)?
**A.** 48 nM

**Q.** What about the Emax [3] of the same molecule?
**A.** 63%

**Q.** What about the Activity (Mus musculus [4]) of the same molecule?
**A.** inactive

**Q.** Which Ki ([1]; read-out: Ki) does the source give for `COc1cc(OCCC(F)(F)F)c(OC)cc1CCN` here?
**A.** 477 nM

**Q.** For `Cl.[2H]C([2H])([2H])Oc1cc(C2CCCC2)c(OC([2H])([2H])[2H])cc1CCN`, which Stability [5] is on record?
**A.** Stable

**Q.** And the Stability [6]?
**A.** Stable

**Q.** Which EC50 ([2]; read-out: EC50) does the source give for `C#CCSc1cc(OC)c(CCN)cc1OC` here?
**A.** 0.67 nM

**Q.** What about the Emax [3] of the same molecule?
**A.** 100%

**Q.** Which Stability [5] does the source give for `Cl.[2H]C([2H])([2H])Oc1cc(C(C)(C)C)c(OC([2H])([2H])[2H])cc1CCN` here?
**A.** Stable

**Q.** And the Stability [6]?
**A.** Stable

**Q.** What does the source list for `COc1cc([S+]([O-])C(F)F)c(OC)cc1CCN.Cl` (stereo unspecified)?
**A.** Ki ([1]; read-out: Ki): 27 nM; Ki [7]: 26 nM; Ki [8]: 82 nM; Activity (Mus musculus [9]): 3; Activity (Mus musculus [10]): 4

**Q.** Which results are given for `Cl.[2H]C([2H])([2H])Oc1cc(SC)c(OC([2H])([2H])[2H])cc1C[C@H](C)N`?
**A.** Stability [5]: Stable; Stability [6]: Stable

**Q.** Which results are given for `COc1cc(C(C)=O)c(OC)cc1CCN.Cl`?
**A.** EC50 ([2]; hek293): Not Active; logP [11]: 0.42

**Q.** Which EC50 ([2]; read-out: EC50) does the source give for `COc1cc(C(=O)C(C)(C)C)c(OC)cc1CCN` here?
**A.** 850 nM

**Q.** What about the logP [11] of the same molecule?
**A.** 2.34

**Q.** With `COc1cc(CCN)cc(OC)c1SC(F)(F)F` as the molecule, how does the Ki ([1]; read-out: Ki) read?
**A.** 45 nM

**Q.** What about the EC50 ([2]; read-out: EC50) of the same molecule?
**A.** 41 nM

**Q.** And the Emax [3]?
**A.** 96%

**Q.** Which Ki ([1]; read-out: Ki) does the source give for `COc1cc(S(=O)(=O)C(F)F)c(OC)cc1CCN.Cl` here?
**A.** 11 nM

**Q.** What about the Ki [7] of the same molecule?
**A.** 20 nM

**Q.** And the Ki [8]?
**A.** 83 nM

**Q.** And the Activity (Mus musculus [9])?
**A.** 5

**Q.** And the Activity (Mus musculus [10])?
**A.** 1.7

**Q.** With `COc1cc(SC(F)(F)F)c(OC)cc1CCN.Cl` as the molecule, how does the Activity (Mus musculus [9]) read?
**A.** 21

**Q.** What about the Activity (Mus musculus [10]) of the same molecule?
**A.** 30

**Q.** And the Stability [12]?
**A.** Stable

**Q.** And the Stability [13]?
**A.** Stable

**Q.** Which results are given for `C#CCCCSc1cc(OC)c(CCN)cc1OC`?
**A.** Ki ([1]; read-out: Ki): 2.3 nM; EC50 ([2]; read-out: EC50): 1.8 nM; Emax [3]: 78%

**Q.** For `COc1cc(S(=O)(=O)C(C)(C)C)c(OC)cc1CCN`, which EC50 ([2]; read-out: EC50) is on record?
**A.** 530 nM

**Q.** Which Ki ([1]; read-out: Ki) does the source give for `COc1cc(SCCCCF)c(OC)cc1CCN` here?
**A.** 47 nM

**Q.** For `COc1cc(OCCC(F)F)c(OC)cc1CCN`, which Ki ([1]; read-out: Ki) is on record?
**A.** 387 nM

**Q.** Which results are given for `COc1cc(S(=O)(=O)CF)c(OC)cc1CCN.Cl`?
**A.** Ki ([1]; read-out: Ki): 5.9 nM; Ki ([1]; read-out: pKi (converted)): 6.03 nM; Ki [7]: 28 nM; Ki [8]: 26 nM; Activity (Mus musculus [9]): 1.7; Activity (Mus musculus [10]): 2.3

**Q.** With `COc1cc(CC(C)N)c(OC)cc1I` (racemic) as the molecule, how does the EC50 ([14]; read-out: EC50) read?
**A.** 7 nM

**Q.** What about the EC50 ([14]; read-out: pEC50 (converted)) of the same molecule?
**A.** 7.94 nM

**Q.** And the Emax [15]?
**A.** 96%

**Q.** And the Emax [16]?
**A.** 103%

**Q.** And the Activity [17]?
**A.** 82%

**Q.** And the inhibition [18]?
**A.** 72%

**Q.** What about the inhibition [19] of the same molecule?
**A.** 76%

**Q.** What about the inhibition [20] of the same molecule?
**A.** 63%

**Q.** What about the Activity [21] of the same molecule?
**A.** 56%

**Q.** What about the Activity (Mus musculus [22]) of the same molecule?
**A.** Active

**Q.** What about the Activity (Mus musculus [23]) of the same molecule?
**A.** 2812 cm

**Q.** With `Cl.[2H]C([2H])([2H])Oc1cc(SC)c(OC([2H])([2H])[2H])cc1C[C@@H](C)N` as the molecule, how does the Stability [5] read?
**A.** Stable

**Q.** What about the Stability [6] of the same molecule?
**A.** Stable

**Q.** What does the source list for `COc1cc(SSC(F)(F)F)c(OC)cc1CCN.Cl`?
**A.** Ki ([1]; read-out: Ki): 78 nM; Ki [7]: 66 nM; Ki [8]: 67 nM; Activity (Mus musculus [9]): 1.8; Activity (Mus musculus [10]): 3.4

**Q.** With `COc1cc(S(=O)(=O)C(F)(F)F)c(OC)cc1CCN.Cl` as the molecule, how does the Ki ([1]; read-out: Ki) read?
**A.** 1.9 nM

**Q.** What about the Ki [7] of the same molecule?
**A.** 8.4 nM

**Q.** And the Ki [8]?
**A.** 13 nM

**Q.** What about the Activity (Mus musculus [9]) of the same molecule?
**A.** 26

**Q.** And the Activity (Mus musculus [10])?
**A.** 28

**Q.** Which EC50 ([2]; read-out: EC50) does the source give for `COc1cc(SC(F)(F)F)c(OC)cc1CC(C)N` (stereo unspecified) here?
**A.** 5.4 nM

**Q.** And the Emax [3]?
**A.** 91%
